Assay results published in patent US7897602B2, “Indolinone compounds as kinase inhibitors” (Development Center for Biotechnology, priority 2009, dated 2011).

Experiments:
PDGFR-β kinase = target: T1, PDGFR-β kinase (Homo sapiens, UniProt P09619); test: PDGFR-β kinase assay (33P incorporation into Poly(Glu-Tyr)); type: biochemical; conditions: 500 nM test compound
T1 construct: recombinant N-terminal 6×His-tagged PDGFR-β kinase domain construct expressed by baculovirus; 6xHis (N); made in house
Method: Inhibition of PDGFR-β kinase activity by compounds disclosed herein was quantified by measuring the amount of [^33P] incorporated into the substrate in the presence of a test compound. Briefly, a reaction mixture of 25 μL final volume containing 55 ng of PDGFR-β kinase (obtained by purifying recombinant N-terminal 6×His-tagged PDGFR-β kinase domain construct expressed by baculovirus), 2.5 μg of the substrate (Poly (Glu-Tyr, 4:1, Sigma)), kinase reaction buffer (20 mM MOPS pH 7.0, 1 mM EDTA, 5% glycerol, 0.01% Brij-35, 0.1% β-mercaptoethanol, 1 mg/mL BSA, 2 mM MnCl2, 30 μM ATP, 0.1 μCi per well [^33P]-γ-ATP (2,500-3,000 Ci/mmol)), and a test compound (500 nM, diluted with 4% DMSO) or DMSO (as the control) was incubated at 30° C. for 30 minutes. The reaction was stopped by adding 5 μL of 3% phosphoric acid solution. The resultant reaction solution was then harvested onto a filter plate (UniFilter-96 GF/B, PerkinElmer), washed 20 times for 5 min with d.d. H2O, and followed by the addition of 30 μL of MicroScint™-20 Cocktail (PerkinElmer). The plate was then sealed and counted using a TopCount scintillation detector (PerkinElmer). The percentage of inhibition rate of the test compound was calculated by dividing the retained radioactivity of the test sample with the retained radioactivity of the control sample and shown in Table 3.

Flt3 kinase = target: T2, Flt3 kinase (Homo sapiens, UniProt P36888); test: Flt3 kinase assay (33P incorporation into Poly(Glu-Tyr)); type: biochemical; conditions: 100 nM test compound; read-out: Inhibition at 100 nM (%) Flt-3
T2 construct: recombinant N-terminal 6×His-tagged Flt3 kinase domain construct expressed from baculovirus; 6xHis (N); made in house
T2 sequence (P36888 610-943 limits assumed): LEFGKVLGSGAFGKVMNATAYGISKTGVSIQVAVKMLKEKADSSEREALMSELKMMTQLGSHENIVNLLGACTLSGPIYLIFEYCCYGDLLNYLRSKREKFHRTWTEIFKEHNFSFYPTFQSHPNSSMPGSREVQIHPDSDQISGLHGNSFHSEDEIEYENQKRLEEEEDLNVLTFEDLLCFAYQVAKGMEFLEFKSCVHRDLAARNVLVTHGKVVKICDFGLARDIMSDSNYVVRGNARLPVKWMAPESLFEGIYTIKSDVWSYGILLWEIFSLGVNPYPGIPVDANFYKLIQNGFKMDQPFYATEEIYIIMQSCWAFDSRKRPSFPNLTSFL
Method: Inhibition of Flt3 kinase activity by compounds disclosed herein was quantified by measuring the amount of [^33P] incorporated into the substrate in the presence of a test compound. Briefly, a reaction mixture of 25 μL final volume containing 5 ng of Flt3 kinase (obtained by purifying recombinant N-terminal 6×His-tagged Flt3 kinase domain construct expressed from baculovirus), 5 μg of the substrate (Poly (Glu-Tyr, 4:1, Sigma)), kinase reaction buffer (20 mM MOPS pH 7.0, 1 mM EDTA, 5% glycerol, 0.01% Brij-35, 0.1% β-mercaptoethanol, 1 mg/mL BSA, 100 μM ATP, 0.1 μCi per well [^33P]-γ-ATP (2,500-3,000 Ci/mmol)), and a test compound (100 nM, diluted with 4% DMSO) or DMSO (as the control) was incubated at 30° C. for 30 minutes. The reaction was stopped by adding 5 μL of 3% phosphoric acid solution. The resultant reaction solution was then harvested onto a filter plate (UniFilter-96 GF/B, PerkinElmer), washed 20 times for 5 min with d.d. H2O, and followed by the addition of 30 μL of MicroScint™-20 Cocktail (PerkinElmer). The plate was then sealed and counted using a TopCount scintillation detector (PerkinElmer). The percentage of inhibition rate of the test compound was calculated by dividing the retained radioactivity of the test sample with the retained radioactivity of the control sample and shown in Table 3.

T1 sequence (P09619 600-962 limits assumed): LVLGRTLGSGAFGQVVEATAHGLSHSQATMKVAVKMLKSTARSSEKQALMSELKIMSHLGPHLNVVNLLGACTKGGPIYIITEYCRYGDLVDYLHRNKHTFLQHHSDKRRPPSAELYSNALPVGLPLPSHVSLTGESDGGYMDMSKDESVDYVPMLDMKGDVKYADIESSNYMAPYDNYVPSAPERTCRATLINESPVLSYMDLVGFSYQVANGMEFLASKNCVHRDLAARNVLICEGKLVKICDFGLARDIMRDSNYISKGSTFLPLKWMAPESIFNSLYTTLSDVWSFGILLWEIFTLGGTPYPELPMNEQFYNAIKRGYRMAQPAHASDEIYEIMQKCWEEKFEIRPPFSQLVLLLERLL

Row | inhibition at 0.5 µM (PDGFR-β kinase) | inhibition at 0.1 µM (Flt3 kinase) | Compound
1 | 54% | 90.2% | CCOC(=O)CCc1c(/C=C2\C(=O)Nc3ccccc32)[nH]c2c1C(=O)CCC2 [DCB-70049, (Z)-3-((3-(3-ethoxy-3-oxopropyl)-4-oxo-4,5,6,7-tetrahydro-1H-indol-2-yl)methylene)indolin-2-one]
2 | 54.8% | 72.1% | O=C(O)CCc1c(/C=C2\C(=O)Nc3ccccc32)[nH]c2c1C(=O)CCC2 [DCB-70052, (Z)-3-((3-carboxyethyl-4-oxo-4,5,6,7-tetrahydro-1H-indol-2-yl)methylene)indolin-2-one]
3 | 82.3% | 97.3% | CCOC(=O)CCc1c(/C=C2\C(=O)Nc3ccc(F)cc32)[nH]c2c1C(=O)CCC2 [DCB-70053, (Z)-5-fluoro-3-((3-(3-ethoxy-3-oxopropyl)-4-oxo-4,5,6,7-tetrahydro-1H-indol-2-yl)methylene)indolin-2-one]
4 | 84.1% | 99.2% | CCOC(=O)CCc1c(/C=C2\C(=O)Nc3ccc(Br)cc32)[nH]c2c1C(=O)CCC2 [DCB-70056, (Z)-5-bromo-3-((3-(3-ethoxy-3-oxopropyl)-4-oxo-4,5,6,7-tetrahydro-1H-indol-2-yl)methylene)indolin-2-one]
5 | 89.3% | 92.8% | O=C(O)CCc1c(/C=C2\C(=O)Nc3ccc(Br)cc32)[nH]c2c1C(=O)CCC2 [DCB-70057, (Z)-5-bromo-3-((3-carboxyethyl-4-oxo-4,5,6,7-tetrahydro-1H-indol-2-yl)methylene)indolin-2-one]
6 | 30.5% | 55.1% | CCOC(=O)CCc1c(/C=C2\C(=O)Nc3ccc(-c4ccc(O)c(OC)c4)cc32)[nH]c2c1C(=O)CCC2 [DCB-70058, (Z)-5-(4-hydroxyl-3-methoxyphenyl)-3-((3-(3-ethoxy-3-oxopropyl)-4-oxo-4,5,6,7-tetrahydro-1H-indol-2-yl)methylene)indolin-2-one]
7 | 38.3% | 21.5% | COc1cc(-c2ccc3c(c2)/C(=C/c2[nH]c4c(c2CCC(=O)O)C(=O)CCC4)C(=O)N3)ccc1O [DCB-70059, (Z)-5-(4-hydroxyl-3-methoxyphenyl)-3-((3-carboxyethyl-4-oxo-4,5,6,7-tetrahydro-1H-indol-2-yl)methylene)indolin-2-one]
8 | 67.5% | 91.6% | CCOC(=O)CCc1c(/C=C2\C(=O)Nc3ccc([N+](=O)[O-])cc32)[nH]c2c1C(=O)CCC2 [DCB-70062, (Z)-5-nitro-3-((3-(3-ethoxy-3-oxopropyl)-4-oxo-4,5,6,7-tetrahydro-1H-indol-2-yl)methylene)indolin-2-one]
9 | 79.7% | 74.7% | O=C(O)CCc1c(/C=C2\C(=O)Nc3ccc([N+](=O)[O-])cc32)[nH]c2c1C(=O)CCC2 [DCB-70063, (Z)-5-nitro-3-((3-carboxyethyl-4-oxo-4,5,6,7-tetrahydro-1H-indol-2-yl)methylene)indolin-2-one]
10 | 56.7% | 25.7% | CCOC(=O)CCc1c(/C=C2\C(=O)Nc3ccc(S(=O)(=O)NC)cc32)[nH]c2c1C(=O)CCC2 [DCB-70064, (Z)-5-(N-methylsulfamoyl)-3-((3-(3-ethoxy-3-oxopropyl)-4-oxo-4,5,6,7-tetrahydro-1H-indol-2-yl)methylene)indolin-2-one]
11 | 17.3% | -6.8% | CNS(=O)(=O)c1ccc2c(c1)/C(=C/c1[nH]c3c(c1CCC(=O)O)C(=O)CCC3)C(=O)N2 [DCB-70065, (Z)-5-(N-methylsulfamoyl)-3-((3-carboxyethyl-4-oxo-4,5,6,7-tetrahydro-1H-indol-2-yl)methylene)indolin-2-one]
12 | 85.4% | 38.6% | CCOC(=O)CCc1c(/C=C2\C(=O)Nc3cc(-c4ccc(O)cc4)ccc32)[nH]c2c1C(=O)CCC2 [DCB-70066, (Z)-6-(4-hydroxyphenyl)-3-((3-(3-ethoxy-3-oxopropyl)-4-oxo-4,5,6,7-tetrahydro-1H-indol-2-yl)methylene)indolin-2-one]
13 | 22% | 21.2% | CCOC(=O)CCc1c(/C=C2\C(=O)Nc3ccc(-c4ccc(OC)c(OC)c4)cc32)[nH]c2c1C(=O)CCC2 [DCB-70067, (Z)-5-(3,4-dimethoxyphenyl)-3-((3-(3-ethoxy-3-oxopropyl)-4-oxo-4,5,6,7-tetrahydro-1H-indol-2-yl)methylene)indolin-2-one]
14 | 20.6% | 15.6% | COc1ccc(-c2ccc3c(c2)/C(=C/c2[nH]c4c(c2CCC(=O)O)C(=O)CCC4)C(=O)N3)cc1OC [DCB-70068, (Z)-5-(3,4-dimethoxyphenyl)-3-((3-carboxyethyl-4-oxo-4,5,6,7-tetrahydro-1H-indol-2-yl)methylene)indolin-2-one]
15 | 6.8% | 9.6% | CCOC(=O)CCc1c(/C=C2\C(=O)Nc3ccc(-c4cc5ccccc5s4)cc32)[nH]c2c1C(=O)CCC2 [DCB-70069, (Z)-5-(benzo[b]thiophen-2-yl)-3-((3-(3-ethoxy-3-oxopropyl)-4-oxo-4,5,6,7-tetrahydro-1H-indol-2-yl)methylene)indolin-2-one]
16 | 18.7% | 13.3% | O=C(O)CCc1c(/C=C2\C(=O)Nc3ccc(-c4cc5ccccc5s4)cc32)[nH]c2c1C(=O)CCC2 [DCB-70070, (Z)-5-(benzo[b]thiophen-2-yl)-3-((3-carboxyethyl-4-oxo-4,5,6,7-tetrahydro-1H-indol-2-yl)methylene)indolin-2-one]
17 | 43.1% | 21.2% | O=C(O)CCc1c(/C=C2\C(=O)Nc3ccc(S(=O)(=O)Cc4ccccc4)cc32)[nH]c2c1C(=O)CCC2 [DCB-70071, (Z)-5-benzylsulfonyl-3-((3-carboxyethyl-4-oxo-4,5,6,7-tetrahydro-1H-indol-2-yl)methylene)indolin-2-one]
18 | 34.5% | -2.1% | O=C(O)CCc1c(/C=C2\C(=O)Nc3ccc(S(=O)(=O)Cc4ccc(F)cc4)cc32)[nH]c2c1C(=O)CCC2 [DCB-70072, (Z)-5-(4-fluorobenzylsulfonyl)-3-((3-carboxyethyl-4-oxo-4,5,6,7-tetrahydro-1H-indol-2-yl)methylene)indolin-2-one]
19 | 29.3% | 1.4% | O=C(O)CCc1c(/C=C2\C(=O)Nc3ccc(S(=O)(=O)Cc4c(Cl)cccc4Cl)cc32)[nH]c2c1C(=O)CCC2 [DCB-70073, (Z)-5-(2,6-dichlorobenzylsulfonyl)-3-((3-carboxyethyl-4-oxo-4,5,6,7-tetrahydro-1H-indol-2-yl)methylene)indolin-2-one]
20 | 6.6% | -1.3% | CCOC(=O)CCc1c(/C=C2\C(=O)Nc3ccc(NC(=O)c4ccc(F)cc4)cc32)[nH]c2c1C(=O)CCC2 [DCB-70074, (Z)-5-(4-fluorobenzamido)-3-((3-(3-ethoxy-3-oxopropyl)-4-oxo-4,5,6,7-tetrahydro-1H-indol-2-yl)methylene)indolin-2-one]
21 | 94.1% | 63.5% | O=C(O)CCc1c(/C=C2\C(=O)Nc3cc(-c4ccc(O)cc4)ccc32)[nH]c2c1C(=O)CCC2 [DCB-70075, (Z)-6-(4-hydroxyphenyl)-3-((3-carboxyethyl-4-oxo-4,5,6,7-tetrahydro-1H-indol-2-yl)methylene)indolin-2-one]
